The values below come from PubChem BioAssay (NCI).

Test systems include OVCAR-8 ovarian; PC-3 prostate; UACC-257 melanoma; SW-620 colon; SN12C renal; OVCAR-4 ovarian; HCT-116 colon; DU-145 prostate; SK-MEL-2 melanoma; RXF 393 renal.
What all share (assay): NCI-60 cell line screen, 48 h

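Following 48 hours of exposure in 96-well plates, responses at five concentrations were used to interpolate endpoints linearly. Definition used: TGI = concentration required for complete inhibition of growth.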

With `COc1ccc(S(=O)(=O)N2C(=O)CCC2C(=O)NN)cc1` (stereo not given), the TGI in the assay on OVCAR-8 ovarian, in the assay with PC-3 prostate, in the assay on UACC-257 melanoma, with SW-620 colon, with SN12C renal and with OVCAR-4 ovarian was above 100 µM in each case. The TGI in the assay on HCT-116 colon, in the assay with DU-145 prostate and with SK-MEL-2 melanoma was above 100 µM throughout.

Take `CCOC(=O)c1c(-c2ccccc2)c(-c2ccccc2)cn1C`: the TGI with OVCAR-8 ovarian, with UACC-257 melanoma, in the assay with SN12C renal, in the assay with OVCAR-4 ovarian, in the assay with DU-145 prostate and in the assay on RXF 393 renal was above 10 µM in each case. Further, in the assay with SK-MEL-2 melanoma, the TGI was above 10 µM.

Consider `CCC1=CC2CN3Cn4c(c(COCc5c6n(c7ccccc57)CN5CC7C=C(CC)C5C6(C(=O)OC)C7)c5ccccc54)C(C(=O)OC)(C2)C13`, for which the TGI in the assay on OVCAR-8 ovarian, with UACC-257 melanoma, in the assay with SW-620 colon, in the assay on SN12C renal, with OVCAR-4 ovarian and in the assay on HCT-116 colon was above 100 µM throughout. Besides, the TGI with RXF 393 renal and with SK-MEL-2 melanoma was above 100 µM each time.

Turning to `NCCCN1CCN(CCCNc2ccc3nnn4c5ccccc5c(=O)c2c34)CC1`, the TGI is above 100 µM in the assay on OVCAR-8 ovarian; 35.5 µM in the assay with PC-3 prostate; above 100 µM in the assay with UACC-257 melanoma; above 100 µM in the assay on SW-620 colon; 30.7 µM in the assay with SN12C renal; 33.1 µM with OVCAR-4 ovarian. In addition, the TGI in the assay with HCT-116 colon stood at 37.7 µM; in the assay on DU-145 prostate it was 57.6 µM; with SK-MEL-2 melanoma it was 36.1 µM.

In the case of `CCN1CCCC(NCc2c3ccccc3c(CNC3CCCN(CC)C3)c3ccccc23)C1` (stereo not given), the TGI in the assay with OVCAR-8 ovarian was above 74.4 µM; in the assay on UACC-257 melanoma it was 26.4 µM; with SW-620 colon, 29.4 µM; with SN12C renal, 40.3 µM; in the assay on OVCAR-4 ovarian, 18 µM; in the assay on HCT-116 colon it was 23.3 µM. Besides, the results for the TGI in the assay with RXF 393 renal and in the assay with SK-MEL-2 melanoma were 11.8 µM and 11.7 µM, respectively.

For `CSC(=Nc1ccccc1)N(c1ccccc1)c1nc(=[N+](C)C)ss1`, the TGI in the assay with OVCAR-8 ovarian was 6.19 µM; with UACC-257 melanoma, 4.96 µM; in the assay with SW-620 colon, 3.27 µM; in the assay on SN12C renal, 14.7 µM; with OVCAR-4 ovarian, 21.5 µM; in the assay with HCT-116 colon, 12 µM. Besides, the figures for the TGI in the assay with RXF 393 renal and in the assay on SK-MEL-2 melanoma were 12.7 µM and 11.7 µM, respectively.

Regarding `COc1c(O)c2c3c(c(C)cc(O)c3c1O)C(=O)C(O)(C(C)(C)C(C)=O)C2=O` (stereo not given), the TGI in the assay on OVCAR-8 ovarian, in the assay with UACC-257 melanoma, in the assay on SW-620 colon, in the assay with SN12C renal, in the assay with OVCAR-4 ovarian and in the assay with HCT-116 colon was above 100 µM throughout. The TGI in the assay with RXF 393 renal and in the assay with SK-MEL-2 melanoma was above 100 µM throughout.

In the case of `C=Cc1ccc(C)[n+](C[Si](C)(C)O[Si](C)(C)C[n+]2cc(C=C)ccc2C)c1`, the TGI with OVCAR-8 ovarian, with UACC-257 melanoma, in the assay on SW-620 colon, in the assay on SN12C renal, with OVCAR-4 ovarian and in the assay with HCT-116 colon was above 100 µM in each case. In addition, the TGI in the assay with RXF 393 renal and in the assay with SK-MEL-2 melanoma was above 100 µM each time.

Consider `O=C(NC(COC(=O)C(Cc1ccccc1)NC(=O)c1ccccc1)Cc1ccccc1)c1ccccc1` (stereo not given), for which the TGI with OVCAR-8 ovarian, in the assay on PC-3 prostate, in the assay on UACC-257 melanoma, in the assay with SW-620 colon, in the assay with OVCAR-4 ovarian and with SK-MEL-2 melanoma was above 50 µM throughout.

Turning to `COc1ccc(CC2c3c(cc(OC)c(OC)c3OC)CCN2C)cc1OC` (stereo not given), the TGI with OVCAR-8 ovarian, in the assay on UACC-257 melanoma, in the assay with SW-620 colon, in the assay with SN12C renal, with OVCAR-4 ovarian and in the assay with HCT-116 colon was above 100 µM each time. In the assay with SK-MEL-2 melanoma, this compound registered a TGI above 100 µM.

For the compound `CC1=NN(C(=O)CC(=O)Nc2ccccc2F)C(=O)C1N=Nc1ccccc1[N+](=O)[O-]` (stereo not given), the TGI with OVCAR-8 ovarian, in the assay on UACC-257 melanoma, in the assay on SW-620 colon, in the assay on SN12C renal, with OVCAR-4 ovarian and with HCT-116 colon was above 100 µM in each case. Also, the TGI in the assay with RXF 393 renal and with SK-MEL-2 melanoma was above 100 µM in each case.

Turning to `CC12CCC3C(CCC4CC(OC(=O)Cc5ccc(N(CCCl)CCCl)cc5)CCC43C)C1CCC(=O)N2` (stereo not given), the TGI in the assay with OVCAR-8 ovarian is 29.2 µM; in the assay with SW-620 colon it was 27.8 µM; with SN12C renal, 29.6 µM; in the assay on OVCAR-4 ovarian it was 29.3 µM; in the assay on HCT-116 colon, 28.3 µM; in the assay on RXF 393 renal, 28 µM. The compound further came in with a TGI in the assay with SK-MEL-2 melanoma of 29.8 µM.

As to `CC(C(=O)N1C(=O)N(C(=O)C(C)C(O)c2ccccc2)C2CCCCC21)C(O)c1ccccc1` (stereo not given), the TGI with OVCAR-8 ovarian, in the assay on SW-620 colon, with SN12C renal, in the assay with OVCAR-4 ovarian, in the assay on HCT-116 colon and in the assay on RXF 393 renal was above 100 µM in each case. Besides, the TGI in the assay with SK-MEL-2 melanoma is above 100 µM.

As for `CC(=O)OCC1OC(n2cc(I)c(=O)[nH]c2=O)C(OC(C)=O)C(OC(C)=O)C1OC(C)=O` (stereo not given), the TGI in the assay on OVCAR-8 ovarian, with UACC-257 melanoma, with SW-620 colon, in the assay with SN12C renal, in the assay on OVCAR-4 ovarian and in the assay on HCT-116 colon was above 100 µM each time. Moreover, the TGI in the assay with RXF 393 renal and in the assay with SK-MEL-2 melanoma was above 100 µM each time.

In the case of `O=C1Sc2ccccc2C(=O)N2CSCC12` (stereo not given), the TGI with OVCAR-8 ovarian, with UACC-257 melanoma, with SW-620 colon, with SN12C renal, in the assay with HCT-116 colon and with RXF 393 renal was above 100 µM throughout. This compound also came in with a TGI with SK-MEL-2 melanoma above 100 µM.

As to `CC[n+]1[b-](C(C)(C)C)n(/N=C/C(C)(C)C)[b-](C(C)(C)C)[n+]1CC`, the TGI in the assay with OVCAR-8 ovarian, in the assay with PC-3 prostate, with UACC-257 melanoma, in the assay with SW-620 colon, in the assay on SN12C renal and with OVCAR-4 ovarian was above 100 µM throughout. In addition, the TGI in the assay with HCT-116 colon, with RXF 393 renal and in the assay with SK-MEL-2 melanoma was above 100 µM each time.

For `COC(=O)c1c2c(cc3c1CCC3)CCC2`, the TGI in the assay with OVCAR-8 ovarian, in the assay on PC-3 prostate, in the assay on UACC-257 melanoma, in the assay on SW-620 colon, with SN12C renal and in the assay with OVCAR-4 ovarian was above 100 µM in each case. Moreover, the TGI in the assay on HCT-116 colon was above 100 µM; in the assay on DU-145 prostate it was above 100 µM; in the assay on SK-MEL-2 melanoma, 64.3 µM.

As for `COc1ccc(-c2oc(/C=N/NC(N)=S)c([N+](=O)[O-])c2-c2ccc(OC)c(OC)c2)cc1OC`, the TGI is 81.8 µM with OVCAR-8 ovarian; above 100 µM in the assay on UACC-257 melanoma; above 100 µM with SW-620 colon; above 100 µM with SN12C renal; 61.6 µM in the assay on OVCAR-4 ovarian; 41.1 µM with HCT-116 colon. Besides, the results for the TGI in the assay on RXF 393 renal and in the assay on SK-MEL-2 melanoma were 45.6 µM and 35.2 µM, respectively.

Consider `O=C(Nc1ccccc1F)c1cc2ccc(O)cc2oc1=Nc1ccccc1F`, for which the TGI with OVCAR-8 ovarian came out at 3.36 µM; in the assay with PC-3 prostate, 7.61 µM; in the assay on UACC-257 melanoma, 10.1 µM; in the assay with SW-620 colon, 8.98 µM; in the assay with OVCAR-4 ovarian, 3.94 µM; in the assay on HCT-116 colon it was 4.01 µM. The TGI in the assay with DU-145 prostate is 3.75 µM; with SK-MEL-2 melanoma it was 4.05 µM.

Take `CCN(CC)CCCNC(=O)c1ccc([N+](=O)[O-])cc1O`: the TGI in the assay on OVCAR-8 ovarian, with UACC-257 melanoma, in the assay on SW-620 colon, with SN12C renal, with OVCAR-4 ovarian and with RXF 393 renal was above 100 µM in each case. For the same compound, in the assay on SK-MEL-2 melanoma, the TGI was above 100 µM.

`CC(=O)O[C@H]1C(=O)[C@@]2(C)[C@H]([C@H](OC(=O)c3ccc(F)cc3)[C@]3(O)C[C@H](OC(=O)[C@H](O)[C@@H](NC(=O)c4ccccc4)c4ccccc4)C(C)=C1C3(C)C)[C@]1(OC(C)=O)CO[C@@H]1C[C@@H]2O`: the TGI was above 25 µM in the assay on UACC-257 melanoma; above 25 µM with SW-620 colon; above 25 µM in the assay with SN12C renal; above 25 µM in the assay with OVCAR-4 ovarian; 0.381 µM with HCT-116 colon; 2.31 µM in the assay with DU-145 prostate. For the same compound, the results for the TGI with RXF 393 renal and in the assay on SK-MEL-2 melanoma were 0.902 µM and 9.73 µM, respectively.

With `CCCCNC(=S)N/N=C/c1cccc(C)n1`, the TGI in the assay on OVCAR-8 ovarian, in the assay on PC-3 prostate, in the assay with UACC-257 melanoma, in the assay with SW-620 colon, in the assay with SN12C renal and with OVCAR-4 ovarian was above 100 µM in each case. The TGI in the assay with HCT-116 colon was 38.8 µM; in the assay on DU-145 prostate, above 100 µM.

Regarding `O=C(CN(c1ccccc1)c1ccccc1)N1c2ccccc2C2C=CC=CC21` (stereo not given), the TGI in the assay with OVCAR-8 ovarian is 53.5 µM; in the assay on UACC-257 melanoma, 50.1 µM; with SW-620 colon, above 53.5 µM; with SN12C renal, 34.4 µM; in the assay on OVCAR-4 ovarian it was above 100 µM; in the assay on HCT-116 colon, 45.2 µM. Further, the TGI is above 54.7 µM with RXF 393 renal and 38.8 µM in the assay with SK-MEL-2 melanoma.
